Structures are written as SMILES. Where only a bound is given, the exact number is not on record here.

Consider 34 compounds from paper PMC3731320, “Identification of Benzimidazole Diamides as Selective Inhibitors of the Nucleotide-Binding Oligomerization Domain 2 (NOD2) Signaling Pathway” (PLoS ONE, 2013).

The test system of this assay is NOD2. Description: MDP-stimulated IL-8 release in 293/hNOD2 cells (HTRF). The settings on record: Homo sapiens; MDP-stimulated IL-8 production assay in 293/hNOD2 cells; Figures 4 and 5; read-out: NOD2 IC50. It is filed as cell-based, human. Here is the method:
After 24 hours the amount of IL-8 secreted into the medium was determined by homogeneous time resolved fluorescence (HTRF) assay by the direct addition of a 1:1 mix of europium cryptate and XL665-conjugated anti-IL-8 antibodies according to the manufacturer's instructions (Cisbio).
Background: In TR-FRET formats the signal depends on donor and acceptor labels being close together.
One may read the IC50 as the concentration that gives 50% inhibition. As to `CN(C(=O)Cn1c(CCNC(=O)c2ccccc2)nc2ccccc21)c1ccc2c(c1)CCC2` [Compound 31, N-(2-(1-(2-((2,3-dihydro-1H-inden-5-yl)(methyl)amino)-2-oxoethyl)-1H-benzo[d]imidazol-2-yl)ethyl)benzamide], the IC50 turned out to be 20 µM.

Consider `Cc1ccc(NC(=O)Cn2c(CCNC(=O)c3ccccc3)nc3ccccc32)cc1C` [Compound 6, N-(2-(1-(2-(3,4-dimethylphenylamino)-2-oxoethyl)-1H-benzo[d]imidazol-2-yl)ethyl)benzamide], for which the IC50 is 2.8 ± 0.1 µM.

For `COc1ccc2nc(CCNC(=O)c3ccccc3)n(CC(=O)Nc3ccc4c(c3)CCC4)c2c1` [Compound 27, N-(2-(1-(2-((2,3-dihydro-1H-inden-5-yl)amino)-2-oxoethyl)-6-methoxy-1H-benzo[d]imidazol-2-yl)ethyl)benzamide], the IC50 is over 50 µM.

As to `O=C(Cn1c(CCNC(=O)c2ccccc2)nc2ccccc21)Nc1ccc(OCc2ccccc2)cc1` [Compound 11, N-(2-(1-(2-((4-(benzyloxy)phenyl)amino)-2-oxoethyl)-1H-benzo[d]imidazol-2-yl)ethyl)benzamide], the IC50 is over 50 µM.

In the case of `O=C(Cn1c(CCNC(=O)c2ccccc2)nc2cc(Cl)ccc21)Nc1ccc2c(c1)CCC2` [Compound 23, N-(2-(5-chloro-1-(2-((2,3-dihydro-1H-inden-5-yl)amino)-2-oxoethyl) -1H-benzo[d]imidazol-2-yl)ethyl)benzamide], the IC50 was determined as 1.3 ± 0.1 µM.

In the case of `O=C(Cn1c(CCNC(=O)c2ccccc2)nc2ccccc21)Nc1ccc(Oc2ccccc2)cc1` [Compound 13, N-(2-(1-(2-oxo-2-((4-phenoxyphenyl)amino)ethyl)-1H-benzo[d]imidazol-2-yl)ethyl)benzamide], the half-inhibitory concentration (IC50) was over 50 µM.

Consider `O=C(Cn1c(CCNC(=O)c2ccccc2)nc2ccccc21)Nc1ccc(Cl)c(Cl)c1` [Compound 8, N-(2-(1-(2-(3,4-dichlorophenylamino)-2-oxoethyl)-1H-benzo[d]imidazol-2-yl)ethyl)benzamide], for which the IC50 turned out to be 3.3 ± 2.1 µM.

On to `COc1ccc2c(c1)nc(CCNC(=O)c1ccccc1)n2CC(=O)Nc1ccc2c(c1)CCC2` [Compound 26, N-(2-(1-(2-((2,3-dihydro-1H-inden-5-yl)amino)-2-oxoethyl)-5-methoxy-1H-benzo[d]imidazol-2-yl)ethyl)benzamide], for which the IC50 was over 50 µM.

With `CN(CCc1nc2ccccc2n1CC(=O)Nc1ccc2ccccc2c1)C(=O)c1ccccc1` [Compound 32, N-methyl-N-(2-(1-(2-(naphthalen-2-ylamino)-2-oxoethyl)-1H-benzo[d]imidazol-2-yl)ethyl)benzamide], the IC50 was 0.2 ± 0.01 µM.

For the compound `Cc1ccc2c(c1)nc(CCNC(=O)c1ccccc1)n2CC(=O)Nc1ccc2c(c1)CCC2` [Compound 25, N-(2-(1-(2-((2,3-dihydro-1H-inden-5-yl)amino)-2-oxoethyl)-5-methyl-1H-benzo[d]imidazol-2-yl)ethyl)benzamide], the IC50 worked out at 4.6 ± 1.9 µM.

Consider `O=C(Cn1c(CCNC(=O)c2cccc3ccccc23)nc2ccccc21)Nc1ccc2c(c1)CCC2` [Compound 15, N-(2-(1-(2-((2,3-dihydro-1H-inden-5-yl)amino)-2-oxoethyl)-1H-benzo[d]imidazol-2-yl)ethyl)-1-naphthamide], for which the IC50 stood at 3.4 ± 0.2 µM.

Regarding `O=C(Cn1c(CCNC(=O)c2ccccc2)nc2ccccc21)Nc1ccc2occc2c1` [Compound 7, N-(2-(1-(2-(benzofuran-5-ylamino)-2-oxoethyl)-1H-benzo[d]imidazol-2-yl)ethyl)benzamide], the IC50 was determined as 3.3 ± 0.9 µM.

Turning to `O=C(Cn1c(CCNC(=O)c2ccccc2)nc2ccccc21)Nc1ccc2c(c1)NCC2` [Compound 12, N-(2-(1-(2-(indolin-6-ylamino)-2-oxoethyl)-1H-benzo[d]imidazol-2-yl)ethyl)benzamide], the IC50 was over 50 µM.

`Cc1cccc(C(=O)NCCc2nc3ccccc3n2CC(=O)Nc2ccc3c(c2)CCC3)c1` [Compound 21, N-(2-(1-(2-((2,3-dihydro-1H-inden-5-yl)amino)-2-oxoethyl)-1H-benzo[d]imidazol-2-yl)ethyl)-3-methylbenzamide]: the IC50 is over 50 µM.

Take `Cc1ccc(NC(=O)Cn2c(CCN(C)C(=O)c3ccccc3)nc3ccccc32)cc1C` [Compound 37, N-(2-(1-(2-((3,4-dimethylphenyl)amino)-2-oxoethyl)-1H-benzo[d]imidazol-2-yl)ethyl)-N-methylbenzamide]: the IC50 was determined as 1.6 ± 0.1 µM.

Consider `O=C(Cn1c(CCNC(=O)c2ccccc2)nc2ccccc21)Nc1ccc2c(c1)C(O)CC2` (stereo not shown) [Compound 9, N-(2-(1-(2-((3-hydroxy-2,3-dihydro-1H-inden-5-yl)amino)-2-oxoethyl)-1H-benzo[d]imidazol-2-yl)ethyl)benzamide], for which the IC50 came out at 35.2 ± 9.1 µM.

Take `CN(CCc1nc2ccccc2n1CC(=O)Nc1ccc2occc2c1)C(=O)c1ccccc1` [Compound 36, N-(2-(1-(2-(benzofuran-5-ylamino)-2-oxoethyl)-1H-benzo[d]imidazol-2-yl)ethyl)-N-methylbenzamide]: the IC50 amounted to 1.3 µM.

Turning to `O=C(Cn1c(CCNC(=O)c2cccc(C(F)(F)F)c2)nc2ccccc21)Nc1ccc2c(c1)CCC2` [Compound 20, N-(2-(1-(2-((2,3-dihydro-1H-inden-5-yl)amino)-2-oxoethyl)-1H-benzo[d]imidazol-2-yl)ethyl)-3-(trifluoromethyl)benzamide], the IC50 is over 50 µM.

As to `Cc1cccc2c1nc(CCNC(=O)c1ccccc1)n2CC(=O)Nc1ccc2c(c1)CCC2` [Compound 28, N-(2-(1-(2-((2,3-dihydro-1H-inden-5-yl)amino)-2-oxoethyl)-4-methyl-1H-benzo[d]imidazol-2-yl)ethyl)benzamide], the half-inhibitory concentration (IC50) was over 50 µM.

In the case of `CN(CCc1nc2ccccc2n1CC(=O)Nc1ccc(Cl)c(Cl)c1)C(=O)c1ccccc1` [Compound 35, N-(2-(1-(2-((3,4-dichlorophenyl)amino)-2-oxoethyl)-1H-benzo[d]imidazol-2-yl)ethyl)-N-methylbenzamide], the IC50 worked out at 0.9 ± 0.2 µM.

For `O=C(Cn1c(CCNC(=O)c2ccccc2Cl)nc2ccccc21)Nc1ccc2c(c1)CCC2` [Compound 16, 2-chloro-N-(2-(1-(2-((2,3-dihydro-1H-inden-5-yl)amino)-2-oxoethyl)-1H-benzo[d]imidazol-2-yl)ethyl)benzamide], the IC50 was determined as 3.8 ± 1.4 µM.

Regarding `O=C(Cn1c(CCNC(=O)c2ccc(Cl)c(Cl)c2)nc2ccccc21)Nc1ccc2c(c1)CCC2` [Compound 19, 3,4-dichloro-N-(2-(1-(2-((2,3-dihydro-1H-inden-5-yl)amino)-2-oxoethyl)-1H-benzo[d]imidazol-2-yl)ethyl)benzamide], the IC50 was over 50 µM.

With `Cc1ccc(C(=O)NCCc2nc3ccccc3n2CC(=O)Nc2ccc3c(c2)CCC3)cc1` [Compound 18, N-(2-(1-(2-((2,3-dihydro-1H-inden-5-yl)amino)-2-oxoethyl)-1H-benzo[d]imidazol-2-yl)ethyl)-4-methylbenzamide], the IC50 is over 50 µM.

As for `CN(CCc1nc2ccccc2n1CC(=O)Nc1ccc2sccc2c1)C(=O)c1ccccc1` [Compound 34, N-(2-(1-(2-(benzo[b]thiophen-5-ylamino)-2-oxoethyl)-1H-benzo[d]imidazol-2-yl)ethyl)-N-methylbenzamide], the IC50 worked out at 0.6 ± 0.1 µM.

For the compound `O=C(Cn1c(CCNC(=O)c2ccccc2)nc2ccccc21)Nc1ccc2sccc2c1` [Compound 4, N-(2-(1-(2-(benzo[b]thiophen-5-ylamino)-2-oxoethyl)-1H-benzo[d]imidazol-2-yl)ethyl)benzamide], the concentration for half-maximal inhibition (IC50) amounted to 1.3 ± 0.02 µM.

In the case of `O=C(Cn1c(CCNC(=O)c2cccc(Cl)c2)nc2ccccc21)Nc1ccc2c(c1)CCC2` [Compound 22, 3-chloro-N-(2-(1-(2-((2,3-dihydro-1H-inden-5-yl)amino)-2-oxoethyl)-1H-benzo[d]imidazol-2-yl)ethyl)benzamide], the IC50 was over 50 µM.

`O=C(Cn1c(CCNC(=O)c2ccccc2)nc2ccccc21)Nc1ccc2ccccc2c1` [Compound 5, N-(2-(1-(2-(naphthalen-2-ylamino)-2-oxoethyl)-1H-benzo[d]imidazol-2-yl)ethyl)benzamide]: the IC50 worked out at 1.6 ± 1.3 µM.

As to `O=C(Cn1c(CCNC(=O)c2ccccc2)nc2ccc(Cl)cc21)Nc1ccc2c(c1)CCC2` [Compound 24, N-(2-(6-chloro-1-(2-((2,3-dihydro-1H-inden-5-yl)amino)-2-oxoethyl)-1H-benzo[d]imidazol-2-yl)ethyl)benzamide], the IC50 stood at 4.2 ± 0.1 µM.

Turning to `CC(C)c1cccc(NC(=O)Cn2c(CCNC(=O)c3ccccc3)nc3ccccc32)c1` [Compound 3, N-(2-(1-(2-((3-isopropylphenyl)amino)-2-oxoethyl)-1H-benzo[d]imidazol-2-yl)ethyl)benzamide], the IC50 stood at 0.8 ± 0.5 µM.

Turning to `O=C(Cn1c(CCNC(=O)c2ccccc2)nc2ccccc21)Nc1ccc2c(c1)CCN2` [Compound 10, N-(2-(1-(2-(indolin-5-ylamino)-2-oxoethyl)-1H-benzo[d]imidazol-2-yl)ethyl)benzamide], the IC50 was over 50 µM.

Turning to `O=C(Cn1c(CCNC(=O)c2ccccc2)nc2ccccc21)Nc1ccc2[nH]ccc2c1` [Compound 14, N-(2-(1-(2-(1H-indol-5-ylamino)-2-oxoethyl)-1H-benzo[d]imidazol-2-yl)ethyl)benzamide], the IC50 is over 50 µM.

As for `Cc1ccccc1C(=O)NCCc1nc2ccccc2n1CC(=O)Nc1ccc2c(c1)CCC2` [Compound 17, N-(2-(1-(2-((2,3-dihydro-1H-inden-5-yl)amino)-2-oxoethyl)-1H-benzo[d]imidazol-2-yl)ethyl)-2-methylbenzamide], the IC50 came to 4.7 ± 0.5 µM.

With `CC(C)c1cccc(NC(=O)Cn2c(CCN(C)C(=O)c3ccccc3)nc3ccccc32)c1` [Compound 33, N-(2-(1-(2-((3-isopropylphenyl)amino)-2-oxoethyl)-1H-benzo[d]imidazol-2-yl)ethyl)-N-methylbenzamide], the IC50 came to 0.3 ± 0.01 µM.

`CN(CCc1nc2ccccc2n1CC(=O)N(C)c1ccc2c(c1)CCC2)C(=O)c1ccccc1` [Compound 30, N-(2-(1-(2-((2,3-dihydro-1H-inden-5-yl)(methyl)amino)-2-oxoethyl)-1H-benzo[d]imidazol-2-yl)ethyl)-N-methylbenzamide]: the IC50 came to 17 ± 2 µM.
